Assay results taken from patent publication US20230293629A1, “METHODS FOR ATTENUATING RELEASE OF INFLAMMATORY MEDIATORS AND PEPTIDES USEFUL THEREIN” (BIOMARCK PHARMACEUTICALS LTD., priority 2006, published 2023).
Several values for one entry are separate records, joined by “and”; a condition that tells them apart may be missing. Equal entries are not always repeated. Where a SMILES comes first, the peptide text is derived from it. Where no end group is shown, it is not given here. The star is where a group is joined. Myristoyl = CCCCCCCCCCCCCC(=O)*

Tests used:
[1] = tested on: NK-92 cells; experiment: PMA-stimulated granzyme release from NK-92 cells (BLT hydrolysis); assay type: cell-based, human; conditions: 50 μM test peptide, two hour incubation with 100 nM PMA
Experimental: Three types of human leukocyte cell lines, specifically the promyelocytic cell line HL-60 clone 15, the monocytic cell line U937, and the lymphocyte natural killer cell line NK-92 were purchased from American Type Culture Collection (ATCC; Rockville, MD). HL-60 clone 15 cells (ATCC CRL-1964) were maintained in medium consisting of RPMI 1640 with L-glutamine supplemented with 10% heat-inactivated fetal bovine serum (Gibco; Invitrogen Co., Carlsbad, CA), 50 IU/ml penicillin, 50 μg/mL streptomycin, and 25 mM HEPES buffer, pH 7.8, at 37° C. in an atmosphere containing 5% CO2. […] Viability of cells harvested for experiments was assessed by trypan blue exclusion and populations of cells with viability >95% were used. […]
For measurements of released MPO from neutrophils and released lysozyme from U937 cells, we were able to quantify secretion by using as standards human MPO and […], respectively. For released EPO from HL-60 clone 15 cells and for released granzyme from NK-92 cells, no standards were available to use for quantification. […] To measure intracellular EPO in HL-60 clone 15 cells and intracellular granzyme in NK-92 cells, appropriate aliquots of 0.1% triton X-100-lysed cells were taken for quantification of intracellular granule proteins as described below. All treatments were expressed as percentage of control to minimize variability between cultures. […]

[2] = tested on: ozone-induced neutrophil migration; experiment: Mouse model of ozone-induced COPD: neutrophil migration, IL-6, KC, IFNγ in BAL fluid; assay type: in vivo, mice; conditions: for Concentration of IFNγ in BAL fluid / Concentration of KC in BAL fluid / Concentration of IL-6 in BAL fluid: 25 μL 1.0 mM peptide intratracheal 30 min before 2 h ozone; for Concentration of IFNγ in BAL fluid: PBS+ozone 8.6, forced air 5.0; for Concentration of KC in BAL fluid: PBS+ozone 466.6, forced air 36.3; for Concentration of IL-6 in BAL fluid: PBS+ozone 1041.3, forced air 43.2
Experimental: Ten-week-old Balb/C female mice were obtained from Charles River laboratories and housed under NIH guidelines in groups of 5 per cage. The animals received standard rodent diet and filtered water ad libitum. Three treatment groups of mice, 5 animals in each group, were each anesthetized by intraperitoneal injection of Ketamine (100 mg/kg) and Xylazine (20 mg/kg) and then pretreated by intratracheal administration with 25 μL of either PBS alone, or a solution of 1.0 mM MANS peptide in PBS, or a solution of a 1.0 mM of an acetylated MANS-fragment-peptide Ac-[…] designated as acetylated SEQ ID NO: 106 in PBS. After 30 minutes, the animals were then placed in the appropriate custom-made chamber for ozone or forced air exposures. The animals were exposed to ozone for 2 hours (at ozone concentrations of 1-10 ppm by a slightly modified method described by Haddad et al, 1995. (Haddad E-B, Salmon M, Sun J, Liu S, Das A, Adcock I, Barnes P J, and Chung K F, FEBS Letters, 363:285-288, 1995). The ozone was generated using an ozone generator apparatus model OL80F/B from OzoneLab, Burton, British Columbia, Canada. Ozone concentration was continuously monitored using a Teledyne Photometric 03 Analyzer (model 400E, Teledyne Instruments, City of Industry, CA). Two additional groups of mice, each without any pretreatment, were either exposed to ozone under the same conditions or exposed to forced air under conditions similar to the ozone treatment group but absent ozone. After exposure, the animals were sacrificed by exsanguination and the lungs were serially lavaged 2 times with 1.0 mL aliquots of PBS. The collected bronchoalveolar lavage (BAL) fluid was centrifuged to remove the cells for subsequent counting and differential analysis. Recovered lavage fluid was used for protein and additional analysis of IL-6, IFNγ, and KC (murine IL-8 analog) by ELISA assay (assay kits obtained from R&D Systems, Minneapolis, MN).
The percent inhibition of neutrophil migration into the BAL fluid as a function of treatment groups and relative to a control group treated with PBS alone are provided in the table.

[3] = after ozone exposure, vs. PBS control, listed as acetylated SEQ ID NO:106

CCCCCCCCCCCCCC(=O)NCC(=O)N[C@@H](C)C(=O)N[C@@H](CCC(N)=O)C(=O)N[C@@H](Cc1ccccc1)C(=O)N[C@@H](CO)C(=O)N[C@@H](CCCCN)C(=O)N[C@H](C(=O)N[C@@H](C)C(=O)N[C@@H](C)C(=O)N[C@@H](CCCCN)C(=O)NCC(=O)N[C@@H](CCC(=O)O)C(=O)N[C@@H](C)C(=O)N[C@@H](C)C(=O)N[C@@H](C)C(=O)N[C@@H](CCC(=O)O)C(=O)N[C@@H](CCCNC(=N)N)C(=O)N1CCC[C@H]1C(=O)NCC(=O)N[C@@H](CCC(=O)O)C(=O)N[C@@H](C)C(=O)N[C@@H](C)C(=O)N[C@H](C(=O)N[C@@H](C)C(=O)O)C(C)C)[C@@H](C)O [MANS] (Myristoyl-GAQFSKTAAKGEAAAERPGEAAVA-OH; C-terminus assumed)
% Inhibition Granzyme [1]: 76.0%
Concentration of IFNγ in BAL fluid [2]: approximately 7.4 pg/mL
Concentration of KC in BAL fluid [2]: approximately 183.6 pg/mL
Concentration of IL-6 in BAL fluid [2]: approximately 364.5 pg/mL
% Inhibition of neutrophil migration into BAL fluid ([2]; Balb/C mice, intratracheal pretreatment with 25 μL of 1.0 mM peptide in PBS 30 minutes before 2 hours ozone exposure, relative to control group treated with PBS alone): 93.0%
effect on interferon-γ levels ([2]; after ozone exposure): little effect
reduced neutrophil cell infiltration in the BAL fluid after ozone exposure ([2]; vs. PBS control): 93%±10%

CCCCCCCCCCCCCC(=O)NCC(=O)N[C@H](C(=O)N[C@@H](C)C(=O)N1CCC[C@H]1C(=O)N[C@@H](C)C(=O)N[C@@H](C)C(=O)N[C@@H](CCC(=O)O)C(=O)NCC(=O)N[C@@H](C)C(=O)NCC(=O)N[C@@H](C)C(=O)N[C@@H](CCC(=O)O)C(=O)N[C@H](C(=O)N[C@@H](CCCCN)C(=O)N[C@@H](CCCNC(=N)N)C(=O)N[C@@H](C)C(=O)N[C@@H](CO)C(=O)N[C@@H](C)C(=O)N[C@@H](CCC(=O)O)C(=O)N[C@@H](C)C(=O)N[C@@H](CCCCN)C(=O)N[C@@H](CCC(N)=O)C(=O)N[C@@H](C)C(=O)N[C@@H](Cc1ccccc1)C(=O)O)C(C)C)[C@@H](C)O [RNS, reference compound] (Myristoyl-GTAPAAEGAGAEVKRASAEAKQAF-OH; C-terminus assumed)
% Inhibition Granzyme [1]: 29.5%

Ac-GAQFSKTAAK [Ac-GAQFSKTAAK]
Concentration of IFNγ in BAL fluid [2]: approximately 3.6 pg/mL
Concentration of KC in BAL fluid [2]: approximately 159.7 pg/mL
Concentration of IL-6 in BAL fluid [2]: approximately 130.4 pg/mL
effect on interferon-γ levels ([2]; after ozone exposure): little effect
diminished IL-6 levels / inhibition of IL-6 levels in BAL fluid [2, 3]: 91.3%±15% and ~91%
diminished KC concentrations / inhibition of KC levels in BAL fluid [2, 3]: 71.3%±10% and ~71%
reduced neutrophil cell infiltration in the BAL fluid after ozone exposure ([2]; vs. PBS control): 81%±10%
